These results are taken from US9296711B2, “Substituted isoxazole amide compounds as inhibitors of stearoyl-CoA desaturase 1 (SCD1)” (Hoffman-La Roche Inc., priority 2012, dated 2016).

This test addresses T1, SCD1 (Mus musculus, UniProt P13516).
T1 construct: Mouse liver microsomes, prepared from mice fed a high-carbohydrate diet, were a source of the SCD; from tissue; host or cells: mouse liver microsomes (mice fed a high-carbohydrate diet)
T1 sequence (P13516 1-355): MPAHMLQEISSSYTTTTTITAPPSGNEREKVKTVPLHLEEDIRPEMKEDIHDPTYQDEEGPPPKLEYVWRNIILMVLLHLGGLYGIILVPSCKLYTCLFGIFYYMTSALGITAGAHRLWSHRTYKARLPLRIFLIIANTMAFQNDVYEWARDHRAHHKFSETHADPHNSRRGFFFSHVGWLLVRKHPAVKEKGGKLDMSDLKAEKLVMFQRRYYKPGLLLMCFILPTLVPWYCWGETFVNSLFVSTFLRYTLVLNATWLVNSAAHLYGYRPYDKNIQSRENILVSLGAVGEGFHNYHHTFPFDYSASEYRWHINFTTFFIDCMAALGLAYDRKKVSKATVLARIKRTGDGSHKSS
In words: SCD assay: release of tritiated water from desaturation of 9,10-3H-stearoyl CoA by mouse liver microsomes. It is filed as biochemical. As to conditions: mouse liver microsomes as SCD source; 300 nM (9,10)3H-stearoyl CoA; 25 minutes at room temperature; read-out: IC50 (in vitro inhibition of SCD1). An excerpt:
Stearoyl CoA desaturase activity was monitored by a modification of the acyl carrier protein assay described by B. R. Talamo and K. Bloch in Anal. Biochem. 1968, 29, 300-304. The SCD assay monitors the release of tritiated water from the desaturation of 9,10-^3H-stearoyl CoA.
Mouse liver microsomes, prepared from mice fed a high-carbohydrate diet, were a source of the SCD and cyt b5 and cyt b5 reductase, necessary accessory proteins for the coupled reaction. Reaction mixtures for compound titrations contained 50 mM Tris HCl pH 7.5, 100 mM NaCl, 0.165 mg/ml BSA, 2.4% DMSO, 1 mM NADH, 0.03% T-20, and 300 nM (9,10)^3H-stearoyl CoA (Perkin-Elmer). Reactions were initiated upon the addition of 4 ug/ml SCD microsomes. Incubations were terminated after 25 minutes at room temperature with cold 6% TCA. After standing 10 minutes at 4° C., samples were centrifuged 15 minutes at 4000 rpm to pellet precipitated protein. Supernatants were added to microtiter plates containing suspensions of activated charcoal (Darco G-60, Fisher Scientific) and mixed by inversion. Plates were then centrifuged to separate ^3H—H2O product from charcoal-bound reactants. Supernatants were quantitated in a Perkin Elmer Topcount 384 after solubilization in ScintiSafe Plus 50% (Fisher Scientific).
Inhibition (%) of SCD activity by compounds was calculated according to the following formula: % Inhibition=100*[1−(CPMsample−CPMblank)/(CPMtotal−CPMblank)]
On to `NC(=O)c1cc(-c2ccc(OCc3ccccc3SC(F)(F)F)cc2)no1` [Example 1, 3-[4-(2-Trifluoromethylsulfanyl-benzyloxy)-phenyl]-isoxazole-5-carboxylic acid amide], for which the half-inhibitory concentration (IC50) (in general, the midpoint of a concentration-inhibition curve) worked out at 480 nM.

On to `NC(=O)c1cc(-c2ccc(OCc3ccccc3[S+]([O-])C(F)(F)F)cc2)no1` (stereo not shown) [Example 2, 3-[4-(2-Trifluoromethanesulfinyl-benzyloxy)-phenyl]-isoxazole-5-carboxylic acid amide], for which the IC50 turned out to be 580 nM.

In the case of `COc1ccccc1COc1ccc(-c2cc(C(N)=O)on2)cc1` [Example 3, 3-[4-(2-Methoxy-benzyloxy)-phenyl]-isoxazole-5-carboxylic acid amide], the IC50 came out at 850 nM.

Take `Cc1ccc(COc2ccc(-c3cc(C(N)=O)on3)cc2)cc1C` [Example 4, 3-[4-(3,4-Dimethyl-benzyloxy)-phenyl]-isoxazole-5-carboxylic acid amide]: the IC50 was 2700 nM. As for `N#Cc1ccccc1COc1ccc(-c2cc(C(N)=O)on2)cc1` [Example 5, 3-[4-(2-Cyano-benzyloxy)-phenyl]-isoxazole-5-carboxylic acid amide], the figure is 970 nM; as for `NC(=O)c1cc(-c2ccc(OCc3c(Cl)cccc3Cl)cc2)no1` [Example 6, 3-[4-(2,6-Dichloro-benzyloxy)-phenyl]-isoxazole-5-carboxylic acid amide], 2600 nM.

Turning to `NC(=O)c1cc(-c2ccc(OCc3ccc(F)c(F)c3)cc2)no1` [Example 7, 3-[4-(3,4-Difluoro-benzyloxy)-phenyl]-isoxazole-5-carboxylic acid amide], the IC50 was 2300 nM. The value for `NC(=O)c1cc(-c2ccc(OCc3ccccc3F)cc2)no1` [Example 8, 3-[4-(2-Fluoro-benzyloxy)-phenyl]-isoxazole-5-carboxylic acid amide] was 560 nM. `Cc1ccccc1COc1ccc(-c2cc(C(N)=O)on2)cc1` [Example 9, 3-[4-(2-Methyl-benzyloxy)-phenyl]-isoxazole-5-carboxylic acid amide]: the half-inhibitory concentration (IC50) was 460 nM.

As to `NC(=O)c1cc(-c2ccc(OCc3ccccc3OC(F)(F)F)cc2)no1` [Example 10, 3-[4-(2-Trifluoromethoxy-benzyloxy)-phenyl]-isoxazole-5-carboxylic acid amide], the IC50 worked out at 210 nM. On to `NC(=O)c1cc(-c2ccc(OCc3ccccc3I)cc2)no1` [Example 11, 3-[4-(2-Iodo-benzyloxy)-phenyl]-isoxazole-5-carboxylic acid amide], for which the IC50 stood at 410 nM. For `NC(=O)c1cc(-c2ccc(OCc3c(F)cccc3Cl)cc2)no1` [Example 12, 3-[4-(2-Chloro-6-fluoro-benzyloxy)-phenyl]-isoxazole-5-carboxylic acid amide], the half-maximal inhibitory concentration (IC50) came to 3100 nM.

As to `NC(=O)c1cc(-c2ccc(OCc3cc(F)ccc3Cl)cc2)no1` [Example 13, 3-[4-(2-Chloro-5-fluoro-benzyloxy)-phenyl]-isoxazole-5-carboxylic acid amide], the IC50 was determined as 420 nM.

Take `NC(=O)c1cc(-c2ccc(OCc3ccccc3Cl)cn2)no1` [Example 14, 3-[5-(2-Chloro-benzyloxy)-pyridin-2-yl]-isoxazole-5-carboxylic acid amide]: the IC50 worked out at 1400 nM. The value for `NC(=O)c1cc(-c2ccc(OCc3cccnc3Cl)cc2)no1` [Example 15, 3-[4-(2-Chloro-pyridin-3-ylmethoxy)-phenyl]-isoxazole-5-carboxylic acid amide] was 2400 nM; that for `NC(=O)c1cc(-c2ccc(OCc3cccc(C(F)(F)F)c3)cc2)no1` [Example 17, 3-[4-(3-Trifluoromethyl-benzyloxy)-phenyl]-isoxazole-5-carboxylic acid amide] was 1400 nM; that for `NC(=O)c1cc(-c2ccc(OCc3cccc(Cl)c3)cc2)no1` [Example 18, 3-[4-(3-Chloro-benzyloxy)-phenyl]-isoxazole-5-carboxylic acid amide] was 1500 nM. As to `NC(=O)c1cc(-c2ccc(OCc3ccccc3Cl)cc2)no1` [Example 19, 3-[4-(2-Chloro-benzyloxy)-phenyl]-isoxazole-5-carboxylic acid amide], the IC50 is 280 nM.

Turning to `NC(=O)c1cc(-c2ccc(OCc3ccccc3Br)cc2)no1` [Example 20, 3-[4-(2-Bromo-benzyloxy)-phenyl]-isoxazole-5-carboxylic acid amide], the IC50 was 170 nM.

As to `NC(=O)c1cc(-c2ccc(OCc3ccccc3C(F)(F)F)cc2)no1` [Example 21, 3-[4-(2-Trifluoromethyl-benzyloxy)-phenyl]-isoxazole-5-carboxylic acid amide], the IC50 worked out at 180 nM. For the compound `CS(=O)(=O)c1ccccc1COc1ccc(-c2cc(C(N)=O)on2)cc1` [Example 22, 3-[4-(2-Methanesulfonyl-benzyloxy)-phenyl]-isoxazole-5-carboxylic acid amide], the half-maximal inhibitory concentration (IC50) worked out at 1500 nM.

As to `NC(=O)c1cc(-c2ccc(COc3cccc(Cl)c3)cc2)no1` [Example 24, 3-[4-(3-Chloro-phenoxymethyl)-phenyl]-isoxazole-5-carboxylic acid amide], the concentration for half-maximal inhibition (IC50) came to 290 nM. For the compound `NC(=O)c1cc(-c2ccc(COc3ccc(Cl)cc3)cc2)no1` [Example 25, 3-[4-(4-Chloro-phenoxymethyl)-phenyl]-isoxazole-5-carboxylic acid amide], the IC50 was found to be 1300 nM. The value for `Cc1ccccc1OCc1ccc(-c2cc(C(N)=O)on2)cc1` [Example 26, 3-(4-o-Tolyloxymethyl-phenyl)-isoxazole-5-carboxylic acid amide] was 66 nM. With `Cc1cccc(OCc2ccc(-c3cc(C(N)=O)on3)cc2)c1` [Example 27, 3-(4-m-Tolyloxymethyl-phenyl)-isoxazole-5-carboxylic acid amide], the half-maximal inhibitory concentration (IC50) was 560 nM. The value for `COc1ccccc1OCc1ccc(-c2cc(C(N)=O)on2)cc1` [Example 28, 3-[4-(2-Methoxy-phenoxymethyl)-phenyl]-isoxazole-5-carboxylic acid amide] was 170 nM; that for `COc1cccc(OCc2ccc(-c3cc(C(N)=O)on3)cc2)c1` [Example 29, 3-[4-(3-Methoxy-phenoxymethyl)-phenyl]-isoxazole-5-carboxylic acid amide] was 340 nM.

As for `COc1ccc(OCc2ccc(-c3cc(C(N)=O)on3)cc2)cc1` [Example 30, 3-[4-(4-Methoxy-phenoxymethyl)-phenyl]-isoxazole-5-carboxylic acid amide], the half-inhibitory concentration (IC50) was determined as 3300 nM. Regarding `Cc1cccc(C)c1OCc1ccc(-c2cc(C(N)=O)on2)cc1` [Example 31, 3-[4-(2,6-Dimethyl-phenoxymethyl)-phenyl]-isoxazole-5-carboxylic acid amide], the half-maximal inhibitory concentration (IC50) worked out at 1900 nM. The value for `CC(C)c1ccccc1OCc1ccc(-c2cc(C(N)=O)on2)cc1` [Example 32, 3-[4-(2-Isopropyl-phenoxymethyl)-phenyl]-isoxazole-5-carboxylic acid amide] was 380 nM.

`NC(=O)c1cc(-c2ccc(COc3ccccc3OC(F)(F)F)cc2)no1` [Example 33, 3-[4-(2-Trifluoromethoxy-phenoxymethyl)-phenyl]-isoxazole-5-carboxylic acid amide]: the IC50 amounted to 470 nM. As for `CCc1ccccc1OCc1ccc(-c2cc(C(N)=O)on2)cc1` [Example 34, 3-[4-(2-Ethyl-phenoxymethyl)-phenyl]-isoxazole-5-carboxylic acid amide], the figure is 210 nM; as for `CC(C)(C)c1ccccc1OCc1ccc(-c2cc(C(N)=O)on2)cc1` [Example 35, 3-[4-(2-tert-Butyl-phenoxymethyl)-phenyl]-isoxazole-5-carboxylic acid amide], 650 nM; as for `NC(=O)c1cc(-c2ccc(COc3ccccc3C(F)(F)F)cc2)no1` [Example 36, 3-[4-(2-Trifluoromethyl-phenoxymethyl)-phenyl]-isoxazole-5-carboxylic acid amide], 260 nM. The value for `N#Cc1ccccc1OCc1ccc(-c2cc(C(N)=O)on2)cc1` [Example 37, 3-[4-(2-Cyano-phenoxymethyl)-phenyl]-isoxazole-5-carboxylic acid amide] was 310 nM. As for `Cc1cccnc1OCc1ccc(-c2cc(C(N)=O)on2)cc1` [Example 38, 3-[4-(3-Methyl-pyridin-2-yloxymethyl)-phenyl]-isoxazole-5-carboxylic acid amide], the figure is 350 nM. In the case of `NC(=O)c1cc(-c2ccc(COc3ccccc3F)cc2)no1` [Example 39, 3-[4-(2-Fluoro-phenoxymethyl)-phenyl]-isoxazole-5-carboxylic acid amide], the IC50 is 510 nM.
